Results as given in US11752162B2, “Compounds and compositions for treating solid tumors by intratumoral administration” (Novartis AG, priority 2017, dated 2023).

Legend:
[1] = female, C57/BL6, mouse, in vivo, iv, 2 mg/kg
[2] = Binding efficiency of Compound 15 to aluminum-containing particles (Alhydrogel) in Tris buffer; format: physicochemical
[3] = Compound 15 0.25 mg/mL, aluminum 0.625 mg/mL, ratio 2.5:1
[4] = Compound 15 0.25 mg/mL, aluminum 5 mg/mL, ratio 20:1
[5] = Compound 15 1 mg/mL, aluminum 2.5 mg/mL, ratio 2.5:1
[6] = Compound 15 2 mg/mL, aluminum 0.1 mg/mL, ratio 0.05:1, 20 mM Tris pH 7.4
[7] = Compound 15 2 mg/mL, aluminum 2 mg/mL, ratio 1:1, 20 mM Tris pH 7.4
[8] = Compound 15 2 mg/mL, aluminum 3 mg/mL, ratio 1.5:1, 20 mM Tris pH 7.4
[9] = Compound 15 3 mg/mL, aluminum 5 mg/mL, ratio 1.7:1
[10] = Compound 15 3 mg/mL, aluminum 7.5 mg/mL, ratio 2.5:1

## Cc1cc(OCCOCCC(F)(F)P(=O)(O)O)ccc1CCc1cnc2c(N)nc3cc(CCC(=O)O)ccc3c2c1 [Compound 15, 3-(5-amino-2-(4-(2-(3,3-difluoro-3-phosphonopropoxy)ethoxy)-2-methylphenethyl)benzo[f][1,7]naphthyridin-8-yl)propanoic acid]
[1]
  plasma clearance as % of mouse liver blood flow: ~20%
[2]; [3]
  Compound 15 % Bound: 90.7%
  Compound 15 % Free: 9.3%
[2]; [4]
  Compound 15 % Bound: 97.6%
  Compound 15 % Free: 1.4%
[2]; [5]
  Compound 15 % Bound: 93.5%
  Compound 15 % Free: 6.5%
[2]; [6]
  Compound 15 % Bound: 9.6%
  Compound 15 % Free: 90.4%
[2]; Compound 15 2 mg/mL, aluminum 0.5 mg/mL, ratio 0.25:1, 20 mM Tris pH 7.4
  Compound 15 % Free: 74.3%
[2]; Compound 15 2 mg/mL, aluminum 1 mg/mL, ratio 0.5:1, 20 mM Tris pH 7.4
  Compound 15 % Bound: 43.5%
[2]; [7]
  Compound 15 % Bound: 80.8%
  Compound 15 % Free: 19.2%
[2]; [8]
  Compound 15 % Bound: 97.6%
  Compound 15 % Free: 2.4%
[2]; [9]
  Compound 15 % Bound: 99.6%
  Compound 15 % Free: 0.4%
[2]; [10]
  Compound 15 % Bound: 97.1%
  Compound 15 % Free: 2.9%
[2]; aluminum hydroxide:Compound 15 ratio (w/w) 1.5:1, Tris buffer pH 7
  Compound 15 % Bound: 98.5%
[2]; aluminum hydroxide:Compound 15 ratio (w/w) 1.5:1, Tris buffer pH 7.5
  Compound 15 % Bound: 85.9%
[2]; aluminum hydroxide:Compound 15 ratio (w/w) 2:1, Tris buffer pH 7
  Compound 15 % Bound: 99.3%
[2]; aluminum hydroxide:Compound 15 ratio (w/w) 2:1, Tris buffer pH 8
  Compound 15 % Bound: 99.1%
[2]; dosing formulation of Example 9, 100 mM Tris pH 7.4
  % Free Compound 15: 100%
[2]; dosing formulation of Example 10, 100 mM Tris pH 7.4
  % Free Compound 15: 100%
